US20050020501A1, “Methods of modulating the activity of mura” (SmithKline Beecham Corporation and SmithKline Beechm p.l.c., priority 2000, published 2005)
Values after ≈ are worked out from the molar mass of the structure shown. “Also recorded” adds a separate entry of the source. Where a name gives a salt, the structure may show the parent alone. Read-outs that look alike come from different tables or passages of the source.

How the values were obtained:
[1] = target: T1, EPSP Synthase (S. pneumoniae) (Streptococcus pneumoniae serotype 4, UniProt Q9S400); test: EPSPS kinetic assay, fluorescence coupled detection of inorganic phosphate release; assay type: biochemical; conditions: for Inhibition type vs. S3P / Inhibition type vs. PEP: EPSP synthase; for Inhibition type vs. S3P: varied substrate S3P; for Inhibition of EPSPS (in words): rosolic acid tested up to 2 mM; for Inhibition type vs. PEP: varied substrate PEP
T1 construct: made in house
T1 sequence (Q9S400 whole entry): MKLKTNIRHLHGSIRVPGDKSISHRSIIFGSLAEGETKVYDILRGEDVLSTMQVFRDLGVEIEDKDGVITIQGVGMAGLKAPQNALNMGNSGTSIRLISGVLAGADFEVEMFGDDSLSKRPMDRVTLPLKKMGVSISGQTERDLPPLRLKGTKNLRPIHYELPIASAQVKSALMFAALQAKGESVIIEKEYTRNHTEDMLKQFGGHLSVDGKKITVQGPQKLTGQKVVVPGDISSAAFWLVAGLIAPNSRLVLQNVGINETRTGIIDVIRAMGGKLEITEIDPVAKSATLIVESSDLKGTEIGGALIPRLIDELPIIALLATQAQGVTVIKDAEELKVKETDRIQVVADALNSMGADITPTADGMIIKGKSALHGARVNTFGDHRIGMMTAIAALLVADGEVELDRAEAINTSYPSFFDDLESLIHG
From the text: (§1) All chemicals including ATA and its salt forms are from Aldrich. SKF-26488-W3 was isolated as a high-throughput screen hit against EPSPS. Escherichia coli MurA (Marquardt, et al., J. Bacteriol., Vol. 174: 5748-5752 (1992)) and Streptococcus pneumoniae EPSPS (Du, et al., Eur. J. Biochem., Vol. 267: 222-227 (2000)) were expressed and purified as described previously.
(§2) The assays for both EPSPS and MurA are based on the detection of inorganic phosphate release. A fluorescence coupled assay was used for EPSPS and was performed in 100 mM HEPES, pH 7.0, 1 mM NH4Cl, 100 mM KCl. (Du, et al., Eur. J. Biochem., Vol. 267: 222-227 (2000)). MurA was assayed in 50 mM HEPES, pH 7.5, 1 mM DTI using the Malachite Green reagent (Lanzetta, et al., Anal. Biochem., Vol. 100: 95-97 (1979)). The Ki values were determined with fixed concentration of one substrate and varying concentrations of the other substrate and inhibitor. Data were analyzed using GraFit v4.09 (Erithacus Software Ltd.).

[2] = test system: S. pneumoniae 100993; test: Antibacterial activity, minimum inhibitory concentration; assay type: cell-based, Streptococcus pneumoniae; conditions: for Antibacterial activity compared across media: TH media and minimal media with and without supplements; for Effect of adding aromatic amino acids and PABA on antibacterial activity in minimal media: minimal media with versus without aromatic amino acids and PABA
Protocol: The antibacterial activity of ATA against S.pneumoniae100993 was measured in Todd Hewitt media, minimal media, and minimal media+aromatic amino acids (100 mg/L) and p-aminobenzoic acid (PABA) (0.2 mg/L). Glyphosate, chloramphenical and ciprofloxacin were controls.

[3] = target: T2, MurA (E. coli) (Escherichia coli, UniProt P0A749); test: MurA kinetic assay, Malachite Green detection of inorganic phosphate release; assay type: biochemical; conditions: for Inhibition type vs. PEP / Ki / Inhibition type vs. UDPAG: MurA
T2 construct: made in house
T2 sequence (P0A749 whole entry): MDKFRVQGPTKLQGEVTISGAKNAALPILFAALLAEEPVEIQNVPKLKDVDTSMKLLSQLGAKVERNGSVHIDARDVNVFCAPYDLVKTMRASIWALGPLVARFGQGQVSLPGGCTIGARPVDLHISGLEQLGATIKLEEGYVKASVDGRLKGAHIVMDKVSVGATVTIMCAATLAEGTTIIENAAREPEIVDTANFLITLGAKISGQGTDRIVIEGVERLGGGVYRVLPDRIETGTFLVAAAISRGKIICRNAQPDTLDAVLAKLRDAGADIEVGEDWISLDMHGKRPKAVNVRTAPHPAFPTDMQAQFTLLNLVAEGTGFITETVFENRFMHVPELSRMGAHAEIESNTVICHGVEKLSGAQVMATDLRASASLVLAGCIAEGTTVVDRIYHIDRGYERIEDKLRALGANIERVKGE
From the text: as §1, §2

[4] = Streptococcus pneumoniae, 100993, Chemically Defined Medium for Group A Streptococci without aromatic amino acids and PABA, read-out: Minimum Inhibitory Concentration, Minimal media
[5] = Streptococcus pneumoniae, 100993, JRH Strep media with aromatic amino acids and PABA, read-out: Minimum Inhibitory Concentration, Minimal media w/aa's + PABA
[6] = Streptococcus pneumoniae, 100993, Todd Hewitt broth, read-out: Minimum Inhibitory Concentration, TH
[7] = Streptococcus pneumoniae, 100993, read-out: Minimum Inhibitory Concentration, Minimal media
[8] = Streptococcus pneumoniae, 100993, read-out: Minimum Inhibitory Concentration, Minimal media w/aa's + PABA
[9] = Streptococcus pneumoniae, 100993, read-out: Minimum Inhibitory Concentration, TH

In the case of `O=C(O)C1=CC(=C(c2ccc(O)c(C(=O)O)c2)c2ccc(O)c(C(=O)O)c2)C=CC1=O` [ATA sodium salt], the “Inhibition type vs. S3P” value [1] is reported as “competitive inhibitors vs. S3P” and the “Inhibition of EPSPS (in words)” value [1] is reported as “specific inhibitors of EPSPS”.

In the case of `O=C(O)c1cn(C2CC2)c2cc(N3CCNCC3)c(F)cc2c1=O` [Ciprofloxacin], the MIC [2, 4] is reported as 2 µg/mL (≈ 6.04 µM), the MIC [2, 5] is reported as 2 µg/mL and the MIC [2, 6] is reported as 2 µg/mL (≈ 6.04 µM). For the same compound, the “Antibacterial activity compared across media” value [2] was “substantially the same”.

With `O=C(O)C1=CC(=C(c2ccc(O)c(C(=O)O)c2)c2ccc(O)c(C(=O)O)c2)C=CC1=O` [SKB-26488-W3, aurin tricarboxylic acid] the “IC50 against EPSPS” value ([1]; high-throughput screening of EPSPS) was “in the μM range”.

For `O=C1C=CC(=C(c2ccc(O)cc2)c2ccc(O)cc2)C=C1` [Rosolic Acid], the “Inhibition type vs. PEP” value [1] was “No inhibition (up to 2 mM)”, the “Inhibition type vs. S3P” value [1] was “No inhibition (up to 2 mM)” and the “Inhibition of EPSPS (in words)” value [1] was “does not inhibit EPSPS up to 2 mM”. For the same compound, the “Inhibition type vs. PEP” value ([3]; varied substrate PEP) was “Mixed type inhibition”, the Ki ([3]; varied substrate PEP, mixed type inhibition, second constant, read-out: Ki′ vs. PEP) was 273 µM and the Ki ([3]; varied substrate PEP, mixed type inhibition, read-out: Ki vs. PEP) was 10.9 µM. The “Inhibition type vs. UDPAG” value ([3]; varied substrate UDPAG) was “Competitive”, the “Inhibition type vs. UDPAG” value ([3]; varied substrate UDPAG, listed as RA) was “competitive vs UDPAG; also recorded: competitive inhibitor versus UDPAG, although a poor one” and the Ki ([3]; varied substrate UDPAG, read-out: Ki vs. UDPAG) was 44.7 µM.

In the case of `O=C(N[C@H](CO)[C@H](O)c1ccc([N+](=O)[O-])cc1)C(Cl)Cl` [Chloramphenicol], the MIC [2, 4] is reported as 2 µg/mL (≈ 6.19 µM), the MIC [2, 5] is reported as 2 µg/mL and the MIC [2, 6] is reported as 2 µg/mL (≈ 6.19 µM). For the same compound, the “Antibacterial activity compared across media” value [2] was “substantially the same”.

`N.N.N.O=C(O)C1=CC(=C(c2ccc(O)c(C(=O)O)c2)c2ccc(O)c(C(=O)O)c2)C=CC1=O` [ATA ammonium salt] was tested, and the “Inhibition type vs. S3P” value [1] was “competitive inhibitors vs. S3P” and the “Inhibition of EPSPS (in words)” value [1] was “specific inhibitors of EPSPS”.

`O=C(O)CNCP(=O)(O)O` [Glyphosate] was tested, and the MIC [2, 7] was 512 µg/mL (≈ 3030 µM), the MIC [2, 8] was > 512 µg/mL and the MIC [2, 9] was > 512 µg/mL. For the same compound, the “Antibacterial activity in TH media (in words)” value ([2]; TH media) was “no antibacterial activity” and the “Effect of adding aromatic amino acids and PABA on antibacterial activity in minimal media” value [2] was “reversed”.

`O=C(O)C1=CC(=C(c2ccc(O)c(C(=O)O)c2)c2ccc(O)c(C(=O)O)c2)C=CC1=O` [Aurin Tricarboxylic Acid] was tested, and the “Inhibition type vs. PEP” value [1] was “Noncompetitive”, the “Inhibition type vs. S3P” value [1] was “Competitive” and the “Inhibition type vs. S3P” value ([1]; listed as aurin tricarboxylic acid) was “competitive inhibitors vs. S3P”. The Ki ([1]; Ki vs. S3P, EPSPS, competitive vs. S3P, range given for ATA and its sodium and ammonium salts together) was 2.8 to 4.5 µM, the “Potency against MurA relative to RA” value ([3]; ATA versus RA, MurA from Escherichia coli) was ~200 fold and the Ki ([3]; Ki vs. UDPAG, varied substrate UDPAG) was 0.23 µM. For the same compound, the “Inhibition type vs. PEP” value ([3]; varied substrate PEP) was “Non-specific inhibition”, the “Inhibition type vs. UDPAG” value ([3]; varied substrate UDPAG) was “Competitive” and the “Inhibition type vs. UDPAG” value ([3]; varied substrate UDPAG, listed as ATA) was “competitive vs UDPAG”. The “Inhibition pattern of MurA versus both substrates (in words)” value ([3]; versus UDPAG and PEP) was “specific inhibition patterns versus both substrates”, the MIC [2, 7] was 2 µg/mL (≈ 4.74 µM) and the MIC [2, 8] was 4 µg/mL. The MIC [2, 9] was > 128 µg/mL, the “Activity in minimal media relative to TH media” value ([2]; minimal media versus TH media) was “more than 64 fold” and the “Effect of adding aromatic amino acids and PABA on antibacterial activity in minimal media” value [2] was “not reversed”.
